Assay [1] has as its system WT mice. In words: Meningeal lymphatic vessel ablation (Visudyne plus photoconversion): lymphatic morphology. Format: in vivo, mouse. The settings on record: 1 week after Visudyne i.c.m. plus transcranial photoconversion. As to the method:
(§1) Adult 2 months-old WT mice were injected (i.c.m.) with Visudyne (5 μL) followed by a transcranial photoconversion step (Vis./photo.) to ablate meningeal lymphatic vessels. Control mice were injected with Visudyne without photoconversion (Vis.). One week later, mice were injected with 5 μL of a suspension of fluorescent microspheres (1 μm in diameter) into the CSF and 15 minutes later the lymphatic vessel afferent to the deep cervical lymph node (dCLN) was imaged by in vivo stereomicroscopy. Representative images of skull cap show microspheres and lymphatic vessels stained for LYVE-1 around the confluence of sinuses (COS) and transverse sinus (TS) at the dorsal brain meninges or around the sigmoid (SS) and petrosquamosal (PSS) sinuses at the basal brain meninges (scale bars, 500 μm). […]
Immunohistochemistry, imaging and quantifications. […]

Assay [2] concerns WT mice. In words: In vivo measurement of CSF outflow into dCLNs (fluorescent microspheres). More on the design: species or system mouse. The settings on record: 1 week after photoablation. The method, then: as §1
In vivo measurement of CSF outflow into dCLNs. […] Fluorescent microsphere drainage was analyzed in FIJI software by drawing a line demarcating the draining lymphatic vessel afferent to the dCLN and manually counting the beads passing the line by a blinded experimenter. […]

This is an account of results in US20230067811A1, “MODULATING LYMPHATIC VESSELS IN NEUROLOGICAL DISEASE” (University of Virginia Patent Foundation, priority 2020, published 2023).

Turning to verteporfin [Visudyne], in the assay on WT mice [1], the “lymphatic vasculature lining the transverse sinus (dorsal meninges)” value is listed as “efficient ablation”; the “lymphatic vessels around the SS and PSS (basal meninges)” value is on record as “no significant changes”. Besides, the “CSF drainage (microspheres from the CSF into the dCLNs)” value with WT mice [2] was “significant reduction”.
